The target of data set [1] is Recombinant human ACLY full length protein (Homo sapiens (Human), UniProt P53396). Nature of the data set: hACLY ADP-Glo activity assay. The format is biochemical. The settings on record: 0.5 nM ACLY; 15 μM sodium citrate, 1 μM coenzyme A, 80 μM ATP; ADP formed, luminescence; read-out: ADP-Glo IC50 GMean. Here is the method:
Compounds of the disclosure were evaluated for their efficacy in inhibiting hACLY using an ADP-Glo™ assays that measure ADP formed from the enzymatic activity of hACLY.
Test compounds were 3-fold serially diluted in DMSO over 11-point concentration range and dispensed onto a 384-well plate. Recombinant human ACLY full length protein was purified. Concentrations of ACLY protein, sodium citrate, coenzyme A, and ATP in the reaction were optimized for standardized homogenous enzyme assay using ADP-Glo™ Kinase (Promega Inc.). The assay measured ADP formed from the enzymatic reaction.
The reaction buffer consisted of the assay buffer (50 mM HEPES pH 8.0, 10 mM MgCl2, 4 mM 1,4-Dithiothreitol, 0.01% Brij® 35).
ACLY protein (0.5 nM) was added to the prepared reaction buffer, and the mixture was dispensed into the assay plate and incubated for 30 minutes at room temperature. Next, 15 μM sodium citrate, 1 μM coenzyme A, and 80 μM ATP were added into the assay plate and incubated for 60 minutes at room temperature. The final reaction volume for each well was 5 μL.
5 μL of ADP-Glo™ reagent was added, and the mixture was incubated for 40 minutes at room temperature. 10 μl ADP-Glo™ detection reagent was added, and the mixture was incubated for 30 minutes at room temperature. Luminescence was determined using EnVision microplate reader with ultra-luminescence module (Perkin Elmer Inc). Concentration-response curve-fitting and IC50 determination was performed using Xlfit Software (version 5.5.0) with a four-parameter logistic regression fit model.
For orientation: ADP-Glo first removes unused ATP, then detects ADP through luciferase.

Data set [2] concerns the target T1, ACLY (Homo sapiens (Human), UniProt P53396). The data set can be described thus: InCell Pulse assay (permeate HEK293 cells, bind to and stabilize ACLY). To be noted: HEK293 cells transfected with pICP-ACLY(FL)-ePL; 1 hour at 37° C., 55° C. heat pulse 10 minutes; read-out: InCell Pulse IC50 GMean. Format: cell-based. The method in brief:
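HEK293 cells transiently expressing full-length ACLY-ePL were exposed in OptiMEM to 11-point, 3-fold compound dilutions for 1 h at 37 °C, heat-pulsed 10 min at 55 °C, then lysed for enzyme-fragment complementation luminescence. Four-parameter fit, normalised to 0.5% DMSO and 1 μM NDI-094311.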

The target of data set [3] is T1, ACLY. The data set can be described thus: Human ACLY (hACLY) RF/MS activity assay. To be noted: 1 nM hACLY; 30 min pre-incubation; 15 μM Coenzyme A, 50 μM ATP, 50 μM citrate; CoA to Acetyl-CoA by RF/MS; read-out: RFMS IC50 GMean. The format is biochemical. An outline of the steps: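 Reaction buffer was 50 mM Hepes pH 8.0, 10 mM MgCl2, 0.003% BSA, 0.01% Brij35, 50 mM NaCl, 4 mM DTT, with 1 nM hACLY and 1% DMSO; compounds (two-fold series from 10 μM) were pre-incubated 30 min at RT. Reaction with 15 μM CoA, 50 μM ATP, 50 μM citrate ran 30 min, formic-acid quenched; CoA and acetyl-CoA quantified by RF/MS as ratio.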

Like-named read-outs stand apart in the source and are kept apart here. Some results are limits rather than exact numbers.

T1 sequence (P53396 whole entry, the tested form may be a part): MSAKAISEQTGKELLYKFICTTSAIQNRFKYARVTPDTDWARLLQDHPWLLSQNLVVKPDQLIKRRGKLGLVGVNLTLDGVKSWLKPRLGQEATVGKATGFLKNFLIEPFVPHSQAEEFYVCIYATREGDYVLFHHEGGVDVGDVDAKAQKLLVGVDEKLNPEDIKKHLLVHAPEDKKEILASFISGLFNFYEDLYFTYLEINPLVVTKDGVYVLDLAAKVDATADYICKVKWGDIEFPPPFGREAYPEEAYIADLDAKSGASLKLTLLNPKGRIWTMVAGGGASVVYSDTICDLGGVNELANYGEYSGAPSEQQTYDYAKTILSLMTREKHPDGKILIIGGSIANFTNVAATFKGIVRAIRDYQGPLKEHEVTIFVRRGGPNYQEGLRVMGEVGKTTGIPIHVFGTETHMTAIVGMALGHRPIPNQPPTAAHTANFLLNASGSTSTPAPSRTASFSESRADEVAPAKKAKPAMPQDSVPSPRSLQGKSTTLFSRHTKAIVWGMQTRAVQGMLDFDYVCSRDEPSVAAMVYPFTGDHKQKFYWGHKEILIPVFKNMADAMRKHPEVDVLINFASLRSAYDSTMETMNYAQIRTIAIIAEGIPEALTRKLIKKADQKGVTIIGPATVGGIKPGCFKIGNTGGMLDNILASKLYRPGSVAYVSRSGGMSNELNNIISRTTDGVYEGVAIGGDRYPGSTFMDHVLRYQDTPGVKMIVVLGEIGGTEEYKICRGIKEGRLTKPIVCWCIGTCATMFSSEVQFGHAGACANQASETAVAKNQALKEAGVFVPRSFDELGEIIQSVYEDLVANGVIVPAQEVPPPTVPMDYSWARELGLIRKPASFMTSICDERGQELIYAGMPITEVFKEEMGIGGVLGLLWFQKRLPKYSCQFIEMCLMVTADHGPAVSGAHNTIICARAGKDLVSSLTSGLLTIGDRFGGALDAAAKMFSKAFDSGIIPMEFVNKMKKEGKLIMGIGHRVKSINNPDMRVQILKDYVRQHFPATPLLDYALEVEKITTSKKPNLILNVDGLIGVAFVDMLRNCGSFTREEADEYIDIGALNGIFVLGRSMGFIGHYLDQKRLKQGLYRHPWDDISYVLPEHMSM
Chain of Recombinant human ACLY full length protein (P53396 whole entry): as the sequence (P53396 whole entry, the tested form may be a part) above

Consider `COc1c(Cl)cc2cc1S(=O)(=O)Nc1cc(c(F)cc1F)-c1cccc3c1OC(COC2=O)C3` (centres unmarked), for which, under “from COc1c(Cl)cc(C(=O)O)cc1S(=O)(=O)Nc1cc(-c2cccc3c2OC(CO)C3)c(F)cc1F, ester bond, 15-membered ring, DCC/DMAP, DCM, 29.5 mM, 25.0 °C, 2.0 h”, the ring closure, isolated yield stood at 70%.

`COc1c(Cl)cc2cc1S(=O)(=O)Nc1cc(c(F)cc1F)-c1ccccc1C(C)CCOC2=O` (centres unmarked): where the note is “from COc1c(Cl)cc(C(=O)O)cc1S(=O)(=O)Nc1cc(-c2ccccc2C(C)CCO)c(F)cc1F, ester bond, 15-membered ring, DCC/DMAP, DCM, 19.8 mM, 25.0 °C, 2.0 h”, the ring closure, isolated yield worked out at 72%.

In turn, `COc1c(Cl)cc2cc1S(=O)(=O)Nc1cc(c(F)cc1F)-c1ccccc1COC(=O)C2` had a ring closure, isolated yield (from COc1c(Cl)cc(CC(=O)O)cc1S(=O)(=O)Nc1cc(-c2ccccc2CO)c(F)cc1F, ester bond, 14-membered ring, DCC/DMAP, DCM, 12.7 mM, 3.0 h) of 19%.

With `COc1c(Cl)cc2cc1S(=O)(=O)Nc1cc(c(F)cc1F)-c1ccccc1COC2=O`, the ring closure, isolated yield (from COc1c(Cl)cc(C(=O)O)cc1S(=O)(=O)Nc1cc(-c2ccccc2CO)c(F)cc1F, ester bond, 13-membered ring, DCC/DMAP, DCM, 21.8 mM, 26.5 h) came out at 43%.

With `COc1c(Cl)cc2cc1S(=O)(=O)Nc1cc(c(F)cc1F)-c1ccccc1N1CC(COC2=O)C1`, the ring closure, isolated yield (from 3-chloro-5-[[2,4-difluoro-5-[2-[3-(hydroxymethyl)229azetidine-1-yl]phenyl]phenyl]sulfamoyl]-4-methoxybenzoic acid, ester bond, 16-membered ring, DCC/DMAP, DCM, 25.0 mM) came to 60%.

Consider `COc1c(Cl)cc2cc1S(=O)(=O)Nc1cc(c(F)cc1F)Oc1cccc(c1)COC2=O`, for which the ring closure, isolated yield (from COc1c(Cl)cc(C(=O)O)cc1S(=O)(=O)Nc1cc(Oc2cccc(CO)c2)c(F)cc1F, ester bond, 15-membered ring, DCC/DMAP, DCM, 19.8 mM, 3.0 h) stood at 72%.

As for `COc1c(Cl)cc2cc1S(=O)(=O)Nc1cc(ccc1C(F)(F)F)-c1ccccc1OCCOC2=O`, the ring closure, isolated yield (from COc1c(Cl)cc(C(=O)O)cc1S(=O)(=O)Nc1cc(-c2ccccc2OCCO)ccc1C(F)(F)F, ester bond, 15-membered ring, DCC/DMAP, DCM, 16.8 mM, 25.0 °C, 1.0 h) stood at 42%.

Where the note is “from COc1c(Cl)cc(CBr)cc1S(=O)(=O)Nc1cc(-c2ccccc2CCCO)ccc1F, ether bond, 15-membered ring, NaH, THF, 13.0 mM, 50.0 °C, 2.0 h”, `COc1c(Cl)cc2cc1S(=O)(=O)Nc1cc(ccc1F)-c1ccccc1CCCOC2` returned a ring closure, isolated yield of 46%.

`COc1c(Cl)cc2cc1S(=O)(=O)Nc1cc(ccc1F)-c1ccccc1CCOC2` came in with a ring closure, isolated yield (from COc1c(Cl)cc(CBr)cc1S(=O)(=O)Nc1cc(-c2ccccc2CCO)ccc1F, ether bond, 14-membered ring, NaH, THF, 12.7 mM, 50.0 °C, 2.5 h) of 78%.

`COc1c(Cl)cc2cc1S(=O)(=O)Nc1cc(ccc1F)N1CCC[C@@H]1CCOC2=O`: the ring closure, isolated yield (from 3-chloro-5-[[2-fluoro-5-[(2R)-2-(2-hydroxyethyl)221pyrrolidine-1-yl]phenyl]sulfamoyl]-4-methoxybenzoic acid, ester bond, 14-membered ring, DCC/DMAP, DCM, 26.0 mM) was determined as 77%.

Take `COc1ccc2cc1C(=O)N1CCc3cc(F)c(cc31)-c1ccccc1OCCNC2=O`: the ring closure, isolated yield (from 3-[6-[2-(2-aminoethoxy)phenyl]-5-fluoro-indoline-1-carbonyl]-4-methoxybenzoic acid·HCl, amide bond, 15-membered ring, T3P/DIPEA, DMF, 11.6 mM) turned out to be 24%.

Turning to `O=C1OCCOc2ccccc2-c2cc(c(F)cc2F)NS(=O)(=O)c2cc1cc(Cl)c2C(F)F`, the ring closure, isolated yield (from O=C(O)c1cc(Cl)c(C(F)F)c(S(=O)(=O)Nc2cc(-c3ccccc3OCCO)c(F)cc2F)c1, ester bond, 15-membered ring, DCC/DMAP, DCM, 33.0 mM, 25.0 °C, 1.5 h) turned out to be 53%.

As to `COc1c(Cl)cc2cc1S(=O)(=O)Nc1cc(c(F)cc1F)-c1ccccc1OCCNC2=O` [Compound 1, 15-chloro-21,23-difluoro-16-methoxy-8-oxa-18lambda6-thia-11,19-diazatetracyclo[18.3.1.1^13,17.0^2,7]pentacosa-1(24),2,4,6,13,15,17(25),20,22-nonaene-12,18,18-trione], the IC50 (in general, the point on the concentration scale where inhibition reaches its midpoint) in data set [1] is at least 1 µM. This compound also returned a ring closure, isolated yield (amide bond, 15-membered ring, T3P/DIPEA, EtOAc/DMF, 4.9 mM) of 72%.

Regarding `O=C1NCCOc2cccc(c2)-c2cc(c(F)cc2F)NS(=O)(=O)c2cc1cc(Cl)c2O` [Compound 3, 11-chloro-3,5-difluoro-10-hydroxy-18-oxa-8lambda6-thia-7,15-diazatetracyclo[17.3.1.1^2,6.1^9,13]pentacosa-1(22),2(25),3,5,9(24),10,12,19(23),20-nonaene-8,8,14-trione], the 50% inhibitory concentration (IC50) was at least 50 µM at ACLY [2], 0.01 to 1 µM in data set [1] and 0.1 to 10 µM at ACLY [3].

`O=C1NCCCOc2cccc(c2)-c2cc(c(F)cc2F)NS(=O)(=O)c2cc1cc(Cl)c2O` [Compound 5, 11-chloro-3,5-difluoro-10-hydroxy-19-oxa-8lambda6-thia-7,15-diazatetracyclo[18.3.1.1^2,6.1^9,13]hexacosa-1(23),2(26),3,5,9(25),10,12,20(24),21-nonaene-8,8,14-trione]: the IC50 is at least 50 µM on ACLY [2], 0.01 to 1 µM in data set [1] and 0.1 to 10 µM at ACLY [3].

For the compound `C[C@@H]1COc2ccccc2-c2cc(c(F)cc2F)NS(=O)(=O)c2cc(cc(Cl)c2O)C(=O)N1` [Compound 19, (10R)-15-chloro-21,23-difluoro-16-hydroxy-10-methyl-8-oxa-18lambda6-thia-11,19-diazatetracyclo[18.3.1.1^13,17.0^2,7]pentacosa-1(24),2,4,6,13,15,17(25),20,22-nonaene-12,18,18-trione], the half-maximal inhibitory concentration (IC50) at ACLY [2] was at least 50 µM; in data set [1] it was 0.01 to 1 µM; at ACLY [3] it was 0.1 to 10 µM.

On to `O=C1OCCCOc2ccccc2-c2cc(c(F)cc2F)NS(=O)(=O)c2cc1cc(Cl)c2O` [Compound 20, 16-chloro-22,24-difluoro-17-hydroxy-8,12-dioxa-19lambda6-thia-20-azatetracyclo[19.3.1.1^14,18.0^2,7]hexacosa-1(25),2,4,6,14,16,18(26),21,23-nonaene-13,19,19-trione], for which the IC50 was 0.3 to 1 µM on ACLY [2], under 0.001 µM in data set [1] and under 0.02 µM on ACLY [3].

The record behind these values is patent publication US20250289793A1, “MACROCYCLIC INHIBITORS OF ATP CITRATE LYASE” (Esperion Therapeutics, Inc., priority 2022, published 2025).
